Laboratory results reported in PMC9740789, “Investigation of In Vitro and In Vivo Metabolism of α-Amanitin in Rats Using Liquid Chromatography-Quadrupole Time-of-Flight Mass Spectrometric Method” (Molecules, 2022).
Read-outs that look alike come from different tables or passages of the source.

Tests used:
[1] = assay type: in vitro ADME, rat; details: for Long-term stability, mean accuracy / Freeze-thaw stability, mean accuracy / Short-term stability, mean accuracy: rat plasma, LC-qTOF-MS, triplicate or more; for Long-term stability, mean accuracy: 2 weeks, –20 °C; for Freeze-thaw stability, mean accuracy: 3 cycles, –20 °C and RT; for Short-term stability, mean accuracy: 4 h, RT
Procedure: To evaluate the stability of α-amanitin in rat plasma under the actual experimental environments, some stability tests were also conducted. The accuracy (%) and precision (% CV) of the stability test met the acceptance criteria of ±25%, identifying α-amanitin was stable under the short-term, long-term, and freeze-thaw conditions.
The method qualification was performed with “fit-for-purpose” criteria which are suitable for discovery stage research. The qualification contained seven levels of STD and three levels of QC in duplicate. […] Preliminary stability tests were performed at low, medium, and high QC in rat plasma. The stability test was performed under three different conditions: a short-term, a long-term, and a freeze-thaw condition. The short-term stability test was conducted at room temperature (RT) for 4 h. The long-term stability was conducted at –20 °C for 2 weeks. The freeze-thaw stability was conducted for three freeze and thaw cycles at –20 °C and RT. The extraction recovery of protein precipitation was evaluated by analyzing the difference between extracted Medium-QC (165 ng/mL) samples and post-extraction QC samples. The post-extraction QC sample was prepared by spiking the α-amanitin after protein precipitation.
The precision and accuracy of the acceptance criteria for this qualification runs were within ± 25% which are also similar to the discovery-stage bioanalytical criteria in pharmaceutical industry. All experiments were performed in triplicate or more.

[2] = Semi-mass balance study in rats; assay type: in vivo, rat; details: for dose excreted: Sprague-Dawley, rat
Procedure: The excretion characteristic of α-amanitin after IV and PO administration is shown in Table 7, and the time to recovery of α-amanitin profile is shown in Figure 5. The recovery represents the percentage of the excreted amount (mg) to the administrated amount (mg).
A semi-mass balance study was performed to explore the major elimination route of α-amanitin in rats. A non-radiolabeled α-amanitin was used for the semi-mass balance study which seems acceptable due to low metabolic turn-over of α-amanitin.
For the semi-mass balance study, the housed rats were prepared with a bile duct cannulation and administrated by IV bolus in a lateral tail vein or by PO at 1 mg/kg for each dosing route. Urine and feces were collected using a metabolic cage (Jeungdo Bio & Plant co., Seoul, Republic of Korea), and bile was collected through a bile duct cannula. The sampling time interval were 0–4, 4–8, 8–24, and 24–48 h after administration. The urine, bile, and feces samples were stored at –20 °C until further analysis.

[3] = In vitro metabolic stability in rat liver microsomes; assay type: in vitro ADME
Procedure: (§1) In vitro stability of α-amanitin at liver microsomal system was evaluated by a LC-qTOF-MS. The remaining % represents the percentage of the sample (α-amanitin) peak area to the internal standard (verapamil) peak area.
(§2) The in vitro half-life (T1/2) and the in vitro intrinsic clearance (CLint, in vitro) were calculated by using the slope (k) of the graph shown in Figure 3. The calculation formula is shown in Equations (1) and (2). (1) T1/2=ln2/k (2) CLint,in vitromL/min/mg=k×microsomal volume mL/microsomal protein mg
(§3) The concentration of liver microsomes (microsomal volume/microsomal protein) used in the experiment was 0.5 mL/mg. The obtained CLint, in vitro was used to calculate in vivo intrinsic clearance (CLint, in vivo). The equations for calculating CLint, in vivo is shown at Equation (3):(3) CLint,in vivomL/min/kg=CLint,in vitro×mg microsomal protein/g liver weight×(g liver weight/kg body weight)
(§4) The ratio of mg microsomal protein to g liver weight was 44.8 and 48.8 in rat and human, respectively. And the ratio of g liver weight/kg body weight was 40 and 25.7 in rat and human, respectively. The hepatic clearance (CLh) was calculated from CLint, in vivo in a well-stirred model using the following Equation (4):(4) CLhmL/min=(Qh×CLint,in vivo/Qh+CLint,in vivo)
(§5) Qh (mL/min/kg), the hepatic blood flow, is known to be 55.2 and 20.7 mL/min/kg in rat and human, respectively. As a result, α-amanitin has a low hepatic clearance according to the aforementioned well-stirred model.
(§6) A metabolic stability test of α-amanitin was performed in rat and human liver microsomes. Cofactors (NADPH regenerating system solution A and B), compound (100 μg/mL of α-amanitin), 0.5 M potassium phosphate buffer with pH 7.4, and DW were mixed and pre-incubated for 5 min at 37 °C. After the pre-incubation, 12 μL of rat or human liver microsome (20 mg/mL each) was added to a 468 μL of pre-incubated cofactor mixture and the mixture was incubated for 0, 15, 30, and 60 min. After the incubation for each time point, 100 μL of the mixture was aliquoted to a 1.5 mL E-tube at each time point and 100 μL of 50% ACN in MeOH which containing 250 ng/mL of verapamil as an internal standard for protein precipitation was added for stopping the reaction. Then the mixture was centrifuged at 10,000 rpm for 5 min. Then 180 μL of the supernatants was collected in a fresh E-tube and evaporated for 3 h. After evaporation, samples were reconstituted with 150 μL of 50% MeOH with 5 mM ammonium formate. After centrifugation at 10,000 rpm for 5 min, 140 μL of reconstituted sample was transferred to a LC-vial.

[4] = In vitro metabolic stability in human liver microsomes; assay type: in vitro ADME
Procedure: as §1, §2, §3, §4, §5, §6

## CC[C@H](C)[C@@H]1NC(=O)CNC(=O)[C@@H]2Cc3c([nH]c4cc(O)ccc34)[S@+]([O-])C[C@H](NC(=O)CNC1=O)C(=O)N[C@@H](CC(N)=O)C(=O)N1C[C@H](O)C[C@H]1C(=O)N[C@@H]([C@@H](C)[C@@H](O)CO)C(=O)N2 [α-amanitin]
[1]; high QC 1820 ng/mL
  Long-term stability, mean accuracy: 103%
  Freeze-thaw stability, mean accuracy: 114%
  Short-term stability, mean accuracy: 95.7%
[1]; low QC 15.0 ng/mL
  Long-term stability, mean accuracy: 106%
  Freeze-thaw stability, mean accuracy: 94.9%
  Short-term stability, mean accuracy: 81.6%
[1]; medium QC 165 ng/mL
  Long-term stability, mean accuracy: 118%
  Freeze-thaw stability, mean accuracy: 103%
  Short-term stability, mean accuracy: 80.5%
[1]; short-term, long-term, and freeze-thaw conditions, acceptance criteria ±25%
  Stability in rat plasma (in words): stable
[2]; feces, bile duct cannulated rats, IV bolus 1 mg/kg, collection 0–48 h, excreted amount/administered amount, unchanged α-amanitin, LC-qTOF-MS, read-out: Recovery in feces
  dose excreted: < 0.01%
[2]; feces, bile duct cannulated rats, PO 1 mg/kg, collection 0–48 h, excreted amount/administered amount, unchanged α-amanitin, LC-qTOF-MS, read-out: Recovery in feces
  dose excreted: 22%
[2]; urine, bile duct cannulated rats, IV bolus 1 mg/kg, collection 0–48 h, excreted amount/administered amount, unchanged α-amanitin, LC-qTOF-MS, read-out: Recovery in urine
  dose excreted: 67.9%
[2]; urine, bile duct cannulated rats, PO 1 mg/kg, collection 0–48 h, excreted amount/administered amount, unchanged α-amanitin, LC-qTOF-MS, read-out: Recovery in urine
  dose excreted: 1.45%
[2]; bile duct cannulated rats, IV bolus 1 mg/kg, collection 0–48 h, excreted amount/administered amount, unchanged α-amanitin, LC-qTOF-MS, read-out: Recovery in bile
  dose excreted: 1%
[2]; bile duct cannulated rats, PO 1 mg/kg, collection 0–48 h, excreted amount/administered amount, unchanged α-amanitin, LC-qTOF-MS, read-out: Recovery in bile
  dose excreted: 0.05%
[2]; rats, IV 1 mg/kg, urine + bile + feces, 0–48 h, read-out: Total recovery
  dose excreted: 68.9%
[2]; rats, PO 1 mg/kg, urine + bile + feces, 0–48 h, read-out: Total recovery
  dose excreted: 23.5%
[2]; rats, IV 1 mg/kg
  Time within which most of the administered α-amanitin was excreted in urine: ≤ 8 h
[3]; rat liver microsomes, 15 min incubation, NADPH regenerating system, potassium phosphate buffer pH 7.4, 37 °C, 5 min pre-incubation, LC-qTOF-MS
  remaining at 0.25 h: 94.2 ± 8.6%
[3]; rat liver microsomes, 30 min incubation, NADPH regenerating system, potassium phosphate buffer pH 7.4, 37 °C, 5 min pre-incubation, LC-qTOF-MS
  remaining at 0.5 h: 93.1 ± 8.64%
[3]; rat liver microsomes, 60 min incubation, NADPH regenerating system, potassium phosphate buffer pH 7.4, 37 °C, 5 min pre-incubation, LC-qTOF-MS
  remaining at 1 h: 90.3 ± 4.37%
[3]; rat liver microsomes, in vitro half-life, ln2/k from slope of ln(Remaining %) vs incubation time 0-60 min, NADPH, pH 7.4, 37 °C
  half-life: 7.45 h
[3]; rat liver microsomes, k × microsomal volume/microsomal protein (0.5 mL/mg as printed)
  CLint, In Vitro: <10 µL/min/mg
[3]; rat, predicted hepatic clearance, well-stirred model, Qh 55.2 mL/min/kg
  CLh: 5.05 mL/min/kg
[3]; rat, scaled from CLint, in vitro with 44.8 mg microsomal protein/g liver and 40 g liver/kg body weight
  CLint, In Vivo: 5.56 mL/min/kg
[4]; human liver microsomes, 15 min incubation, NADPH regenerating system, potassium phosphate buffer pH 7.4, 37 °C, 5 min pre-incubation, LC-qTOF-MS
  remaining at 0.25 h: 89.2 ± 5.72%
[4]; human liver microsomes, 30 min incubation, NADPH regenerating system, potassium phosphate buffer pH 7.4, 37 °C, 5 min pre-incubation, LC-qTOF-MS
  remaining at 0.5 h: 85.1 ± 5.52%
[4]; human liver microsomes, 60 min incubation, NADPH regenerating system, potassium phosphate buffer pH 7.4, 37 °C, 5 min pre-incubation, LC-qTOF-MS
  remaining at 1 h: 82.6 ± 3.96%
[4]; human liver microsomes, in vitro half-life, ln2/k from slope of ln(Remaining %) vs incubation time 0-60 min, NADPH, pH 7.4, 37 °C
  half-life: 3.93 h
[4]; human liver microsomes, k × microsomal volume/microsomal protein (0.5 mL/mg as printed)
  CLint, In Vitro: <10 µL/min/mg
[4]; human, predicted hepatic clearance, well-stirred model, Qh 20.7 mL/min/kg
  CLh: 5.43 mL/min/kg
[4]; human, scaled from CLint, in vitro with 48.8 mg microsomal protein/g liver and 25.7 g liver/kg body weight
  CLint, In Vivo: 7.36 mL/min/kg
